Laboratory results taken from paper PMC9645637 (PLOS ONE, 2022).
Read-outs that look alike come from different tables or passages of the source.

Experiments:
[1] = target: electric eel AChE (Electrophorus electricus, UniProt O42275); assay: AChE assay (modified Ellman assay), electric eel AChE; type: biochemical
Description: (§1) Mosquitoes from the four Anopheles colonies were separately homogenized in Na2HPO4, 1% Triton X-100 (pH 8.0) and used as an enzyme source. Protein content was assessed using the standard Lowry protein assay. The incubation mixture in a 96-well plate consisted of 20 μl of the enzyme in 132 μL of the assay buffer (Na2HPO4, 1% Triton X-100; pH 8.0). […] Ellman’s reagent, 5,5′-dithiobis(2-nitrobenzoic acid) (DTNB), was freshly prepared in sodium phosphate buffer (dibasic; pH 7.0) and 8 μL (0.2 mM) added to the incubation mixture. To initiate the reaction, 20 μL (1 mM) of the AChE substrate, acetylthiocholine iodide was added making a total volume of 200 μL in each well and the absorbance readings were obtained using the UV-Visible spectrophotometer at 412 nm. Propoxur was kept as a positive control on the basis of having both AChE and larvicidal activities, while DMSO was used as a negative control. […] However, the insecticide propoxur was also assessed against this target to determine AChE selectivity between electric eel and Anopheles and subsequent comparison with the test compounds.
(§2) All in vitro and in vivo assays were performed in triplicate.

[2] = system: An. gambiae (COGS) larvae; assay: Larvicidal assay (WHO bioassay for mosquito larvicides); settings: Anopheles gambiae, read-out: Larvicidal LC50 (95% confidence interval range)
Text: (§3) The laboratory-reared colonies of An. funestus (FUMOZ), An. arabiensis (KWAG), An. gambiae (COGS) and An. coluzzii (G3) were used for larvicidal and AChE screening assays. These are common Anopheles species responsible for malaria transmission in Africa. These colonies were maintained under standard insectary conditions as reported by Hunt et al. and Zengenene et al.. FUMOZ was first collected from Mozambique in 2000 and has a low-level intensity of pyrethroid and carbamate resistance. KWAG was collected from KwaZulu-Natal (South Africa) in 2005 and has shown resistance to pyrethroids and the organochloride, dichloro-diphenyl-trichloroethane (DDT).
(§4) The incubation mixture was performed in a total volume of 250 mL of deionized water under 27°C and humidity ≥78%. The test compounds were dissolved in DMSO and assessed for larvicidal activity at 10 times increasing concentrations from 0.0005 μM to 500 μM. Propoxur, a standard larvicide and an AChE agent, was used as a positive control, while DMSO was employed for the negative vehicle control. Larval mortality was recorded in 24, 48 and 72 hours and larvae were fed with protein dog food at day 0 and after every mortality counting.
as §2

[3] = system: An. coluzzii (G3) larvae; assay: as above; settings: read-out: Larvicidal LC50 (95% confidence interval range); An. coluzzii (G3) third-instar larvae
Text: as §3, §4, §2

[4] = system: An. arabiensis (KWAG) larvae; assay: as above; settings: for LC50: Anopheles arabiensis, read-out: Larvicidal LC50 (95% confidence interval range)
Text: as §3, §4, §2

[5] = system: An. funestus (FUMOZ) larvae; assay: as above; settings: read-out: Larvicidal LC50 (95% confidence interval range); An. funestus (FUMOZ) third-instar larvae
Text: as §3, §4, §2

[6] = system: An. funestus AChE; assay: AChE assay (modified Ellman assay), mosquito homogenate; type: biochemical; settings: read-out: Anopheles AChE inhibition IC50 ± SE (95% confidence interval range)
Description: as §1, §2

[7] = target: T1, An. gambiae AChE (Anopheles gambiae, UniProt Q869C3); assay: as above; type: biochemical
T1 construct: Mosquitoes from the four Anopheles colonies were separately homogenized in Na2HPO4, 1% Triton X-100 (pH 8.0) and used as an enzyme source; from tissue; host or cells: whole mosquito homogenate (An. gambiae colony)
T1 sequence (Q869C3 39-737): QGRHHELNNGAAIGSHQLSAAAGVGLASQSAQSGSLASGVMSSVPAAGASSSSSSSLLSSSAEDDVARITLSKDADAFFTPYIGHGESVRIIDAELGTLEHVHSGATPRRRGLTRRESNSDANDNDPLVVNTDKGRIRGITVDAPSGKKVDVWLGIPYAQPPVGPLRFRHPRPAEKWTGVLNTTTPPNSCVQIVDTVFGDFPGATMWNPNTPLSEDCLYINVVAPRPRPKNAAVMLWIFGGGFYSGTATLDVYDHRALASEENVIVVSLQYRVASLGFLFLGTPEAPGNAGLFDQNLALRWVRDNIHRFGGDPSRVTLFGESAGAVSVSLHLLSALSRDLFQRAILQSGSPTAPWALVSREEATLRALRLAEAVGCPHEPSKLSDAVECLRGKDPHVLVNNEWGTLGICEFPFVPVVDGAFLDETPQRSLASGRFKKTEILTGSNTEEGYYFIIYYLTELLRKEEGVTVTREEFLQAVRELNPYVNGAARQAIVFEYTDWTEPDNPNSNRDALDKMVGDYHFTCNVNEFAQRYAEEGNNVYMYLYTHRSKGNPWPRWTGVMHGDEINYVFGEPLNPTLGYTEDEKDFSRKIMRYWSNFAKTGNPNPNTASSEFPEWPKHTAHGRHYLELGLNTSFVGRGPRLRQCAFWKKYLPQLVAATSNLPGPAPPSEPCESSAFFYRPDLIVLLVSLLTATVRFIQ
Description: as §1, §2

[8] = target: An. arabiensis AChE (Anopheles gambiae, UniProt Q869C3); assay: as above; type: biochemical
An. arabiensis AChE, sequence (Q869C3 162-698 limits assumed): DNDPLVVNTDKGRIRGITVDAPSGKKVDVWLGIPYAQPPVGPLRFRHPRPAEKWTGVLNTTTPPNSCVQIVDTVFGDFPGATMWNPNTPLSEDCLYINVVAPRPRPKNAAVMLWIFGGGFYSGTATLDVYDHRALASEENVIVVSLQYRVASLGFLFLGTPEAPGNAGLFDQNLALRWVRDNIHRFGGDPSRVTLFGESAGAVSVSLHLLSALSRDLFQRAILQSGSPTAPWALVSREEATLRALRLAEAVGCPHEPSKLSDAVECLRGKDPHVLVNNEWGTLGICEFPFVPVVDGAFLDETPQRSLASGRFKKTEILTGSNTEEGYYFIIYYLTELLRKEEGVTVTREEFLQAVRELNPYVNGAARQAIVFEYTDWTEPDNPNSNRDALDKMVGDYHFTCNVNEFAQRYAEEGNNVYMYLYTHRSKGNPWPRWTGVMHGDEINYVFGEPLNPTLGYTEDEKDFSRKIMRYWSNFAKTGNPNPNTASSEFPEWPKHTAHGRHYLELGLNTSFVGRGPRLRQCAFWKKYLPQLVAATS
Description: as §1, §2

[9] = system: Artemia franciscana; settings: read-out: Brine shrimp LC50 (95% confidence interval); Artemia franciscana nauplii, 24 h
Description: as §2

[10] = read-out: Electric eel AChE inhibition IC50 ± SE (95% confidence interval range)
[11] = An. gambiae homogenate, read-out: Anopheles AChE inhibition IC50 ± SE (95% confidence interval range)
[12] = An. arabiensis homogenate, read-out: Anopheles AChE inhibition IC50 ± SE (95% confidence interval range)

electric eel AChE, sequence (O42275 24-633): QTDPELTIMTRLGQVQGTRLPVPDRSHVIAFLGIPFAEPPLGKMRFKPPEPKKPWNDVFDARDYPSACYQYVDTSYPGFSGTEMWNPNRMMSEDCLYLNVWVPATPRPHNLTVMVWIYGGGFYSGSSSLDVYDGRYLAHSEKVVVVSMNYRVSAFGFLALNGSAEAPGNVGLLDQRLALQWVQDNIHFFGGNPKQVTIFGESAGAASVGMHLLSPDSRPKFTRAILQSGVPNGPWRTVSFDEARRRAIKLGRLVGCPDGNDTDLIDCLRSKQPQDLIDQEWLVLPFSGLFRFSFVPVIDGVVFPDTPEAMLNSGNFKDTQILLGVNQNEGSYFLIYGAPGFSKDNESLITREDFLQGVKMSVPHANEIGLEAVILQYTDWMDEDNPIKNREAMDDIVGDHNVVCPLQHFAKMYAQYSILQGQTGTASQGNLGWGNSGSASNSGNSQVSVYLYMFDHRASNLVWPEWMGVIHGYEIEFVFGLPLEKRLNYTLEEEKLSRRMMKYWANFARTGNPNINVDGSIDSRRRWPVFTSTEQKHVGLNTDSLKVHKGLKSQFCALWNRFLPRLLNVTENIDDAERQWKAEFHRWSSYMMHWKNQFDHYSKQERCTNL

In the case of `CNC(=O)Oc1ccccc1OC(C)C` [Propoxur, propoxur, reference compound], the IC50 [1] is reported as 1.28 ± 0.35 µM, the LC50 [2] is reported as 64 µM and the LC50 [3] is reported as 62.7 µM. For the same compound, the LC50 [4] was 8.77 µM, the LC50 [5] was 9.9 µM and the IC50 [6] was 0.89 ± 0.2 µM. The IC50 [7] was 26.1 ± 6.21 µM and the IC50 [8] was 0.78 ± 0.16 µM.

Compound `O=C(NCCN1CCOCC1)C1CCN(Cc2ccccc2)CC1` [derivative 1, 1-benzyl-N-(2-morpholinoethyl) piperidine-4-carboxamide] has an IC50 [1, 10] of over 100 µM, an LC50 [2] of over 100 µM and an LC50 [3] of over 100 µM. The LC50 [4] was over 100 µM, the LC50 [5] was 2.65 µM and the IC50 [6] was over 100 µM. It also gave an IC50 [7, 11] of 48.9 ± 10.5 µM and an IC50 [8, 12] of over 100 µM.

In the case of `O=C(Nc1nccs1)C1CCN(Cc2ccccc2)CC1` [derivative 2, 1-benzyl-N-(thiazol-2-yl) piperidine-4-carboxamide], the IC50 [1, 10] is reported as 55.7 ± 12 µM, the LC50 [2] is reported as over 100 µM and the LC50 [3] is reported as over 100 µM. The LC50 [4] was 0.88 µM, the “Fold more potent than propoxur for An. arabiensis larval toxicity” value ([4]; LC50 ratio versus propoxur) was “about 10 fold” and the LC50 [5] was over 100 µM. For the same compound, the IC50 [6] was over 100 µM, the IC50 [7, 11] was over 100 µM and the IC50 [8, 12] was 6.05 ± 2.21 µM.

Work on `COc1cc(CCNC(=O)C2CCN(Cc3ccccc3)CC2)cc(OC)c1OC` [derivative 3, 1-benzyl-N-(3,4,5-trimethoxyphenethyl) piperidine-4-carboxamide] yielded an LC50 [2] of over 100 µM, an LC50 [3] of over 100 µM and an LC50 [4] of over 100 µM. It also gave an LC50 [5] of over 100 µM.

Work on `O=C(NCc1cccnc1)C1CCN(Cc2ccccc2)CC1` [derivative 4, 1-benzyl-N-(pyridine-3-ylmethyl) piperidine-4-carboxamide] yielded an LC50 [2] of over 100 µM, an LC50 [3] of over 100 µM and an LC50 [4] of over 100 µM. It also gave an LC50 [5] of over 100 µM.

Work on `O=C(NCc1ccco1)C1CCN(Cc2ccccc2)CC1` [derivative 5, 1-benzyl-N-(furan-2-ylmethyl) piperidine-4-carboxamide] yielded an IC50 [1, 10] of over 100 µM, an LC50 [2] of over 100 µM and an LC50 [3] of over 100 µM. For the same compound, the LC50 [4] was over 100 µM, the LC50 [5] was 2.96 µM and the IC50 [6] was over 100 µM. The IC50 [7, 11] was 31.4 ± 7.56 µM and the IC50 [8, 12] was over 100 µM.

`O=C(NCCc1c[nH]cn1)C1CCN(Cc2ccccc2)CC1` [derivative 6, N-[2-(1H-imidazol-4-yl)ethyl]-1-benzylpiperidine-4-carboxamide] gave an LC50 [2] of over 100 µM, an LC50 [3] of over 100 µM and an LC50 [4] of over 100 µM. The LC50 [5] was over 100 µM.

Compound `O=C(NC1CCCc2ccccc21)C1CCN(Cc2ccccc2)CC1` (centres unmarked) [derivative 7, 1-benzyl-N-(1,2,3,4-tetrahydro-naphthalen-1-yl) piperidine-4-carboxamide] has an LC50 [2] of over 100 µM, an LC50 [3] of over 100 µM and an LC50 [4] of over 100 µM. For the same compound, the LC50 [5] was over 100 µM.

In the case of `O=C(NCCN1CCCCC1)C1CCN(Cc2ccccc2)CC1` [derivative 8, 1-benzyl-N-(2-(piperidin-1-yl)ethyl)piperidine-4-carboxamide], the IC50 [1, 10] is reported as 88.3 ± 19.9 µM, the LC50 [2] is reported as over 100 µM and the LC50 [3] is reported as over 100 µM. It also gave an LC50 [4] of over 100 µM, an LC50 [5] of 0.8 µM and an IC50 [6] of over 100 µM. For the same compound, the IC50 [7, 11] was 28.1 ± 6.89 µM and the IC50 [8, 12] was over 100 µM.

With `O=C(NCc1ccncc1)C1CCN(Cc2ccccc2)CC1` [derivative 9, 1-benzyl-N-(pyridine-4-ylmethyl) piperidine-4-carboxamide] the LC50 [2] was over 100 µM, the LC50 [3] was over 100 µM and the LC50 [4] was over 100 µM. The LC50 [5] was over 100 µM.

In the case of `[K+].[K+].[O]=[Cr](=[O])([O-])[O][Cr](=[O])(=[O])[O-]` [potassium dichromate], the LC50 [9] is reported as 0.004 µM.
